Data: patent publication US6737383B1, “Herbicidal oxadiazolidines” (priority 1999, dated 2004)

Experiments:
[1] = test system: wheat; assay: Test B pre/postemergence wheat; format: in vivo, Triticum aestivum; conditions: for Plant response rating, Wheat: scale of 0 to 10 where 0 is no effect and 10 is complete control
Outline: (§1)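 Herbicidal effect was estimated by eye on a ten-point control scale after plants spent twelve to sixteen days in a greenhouse following soil or foliar treatment. Foliar sprays targeted plants at one to four leaves; all doses were formulated in a non-phytotoxic solvent with surfactant.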

[2] = test system: morningglory; assay: Test B pre/postemergence morningglory; format: in vivo, Ipomoea hederacea; conditions: for Plant response rating, Morningglory: scale of 0 to 10 where 0 is no effect and 10 is complete control
Outline: as §1

[3] = test system: smallflower flatsedge; assay: Test B flood test smallflower flatsedge; format: in vivo, Cyperus difformis
Outline: (§2)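 Read-out is a visual response score from 0 (no effect) to 10 (complete control), assigned by comparison with untreated controls. Treatment was applied at the 2-leaf stage, and plants stayed in the greenhouse for twelve to sixteen days before scoring.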

[4] = test system: rape; assay: Test B pre/postemergence rape; format: in vivo, Brassica napus; conditions: for Plant response rating, Rape: scale of 0 to 10 where 0 is no effect and 10 is complete control
Outline: as §1

[5] = test system: duck salad; assay: Test B flood test duck salad; format: in vivo, Heteranthera limosa
Outline: as §2

[6] = test system: cocklebur; assay: Test B pre/postemergence cocklebur; format: in vivo, Xanthium strumarium
Outline: as §1

[7] = test system: blackgrass; assay: Test B pre/postemergence blackgrass; format: in vivo, Alopecurus myosuroides
Outline: as §1

[8] = test system: surinam grass; assay: Test B pre/postemergence surinam grass; format: in vivo, Brachiaria decumbens
Outline: as §1

[9] = test system: pigweed; assay: Test B pre/postemergence pigweed; format: in vivo, Amaranthus retroflexus; conditions: for Plant response rating, Redroot pigweed: scale of 0 to 10 where 0 is no effect and 10 is complete control
Outline: as §1

[10] = test system: bamyardgrass; assay: Test B flood test barnyardgrass; format: in vivo, Echinochloa crus-galli
Outline: as §2

[11] = test system: wild oat; assay: Test B pre/postemergence wild oat; format: in vivo, Avena fatua; conditions: for Plant response rating, Wild oats: scale of 0 to 10 where 0 is no effect and 10 is complete control
Outline: as §1

[12] = test system: purple nutsedge; assay: Test B pre/postemergence purple nutsedge; format: in vivo, Cyperus rotundus; conditions: for Plant response rating, Nutsedge: scale of 0 to 10 where 0 is no effect and 10 is complete control
Outline: as §1

[13] = test system: corn; assay: Test B pre/postemergence corn; format: in vivo, Zea mays
Outline: as §1

[14] = test system: rice; assay: Test B flood test rice; format: in vivo, Oryza sativa
Outline: as §2

[15] = test system: velvetleaf; assay: Test B pre/postemergence velvetleaf; format: in vivo, Abutilon theophrasti; conditions: for Plant response rating, Velvetleaf: scale of 0 to 10 where 0 is no effect and 10 is complete control
Outline: as §1

[16] = Postemergence, Rate 250 g/ha, scale 0 to 10
[17] = Preemergence, Rate 250 g/ha, scale 0 to 10, 0 is no effect, 10 is complete control
[18] = Preemergence, Rate 500 g/ha, scale 0 to 10, 0 is no effect, 10 is complete control
[19] = Rate 62 g/ha, Postemergence, scale 0 to 10 (0 no effect, 10 complete control)
[20] = Rate 125 g/ha, Postemergence, scale 0 to 10, 0 is no effect, 10 is complete control
[21] = Rate 62 g/ha, flood test species, Pre-emergence, visual evaluation after twelve to sixteen days
[22] = Rate 125 g/ha, under heading Pre-emergence, flood test species, visual evaluation after twelve to sixteen days
[23] = Rate 250 g/ha, Pre-emergence (flood test species), scale 0 to 10, 0 is no effect, 10 is complete control
[24] = Rate 500 g/ha, Pre-emergence, flood test species, scale 0 to 10 (0 no effect, 10 complete control)
[25] = Postemergence, Rate 500 g/ha, scale of 0 to 10 where 0 is no effect and 10 is complete control
[26] = Preemergence, Rate 62 g/ha, scale of 0 to 10 where 0 is no effect and 10 is complete control
[27] = Preemergence, Rate 125 g/ha, scale of 0 to 10 where 0 is no effect and 10 is complete control

SMILES: COC(OC)C(C)n1c(=O)on(C(=O)N(c2ccc(F)cc2)C(C)C)c1=O (stereo not drawn) [Compound 471]
- Wheat plant response rating [1, 16]: 0
- Plant response rating, Wheat ([1]; Preemergence, Rate 62 g/ha): 0
- Plant response rating, Wheat ([1]; Preemergence, Rate 125 g/ha): 0
- Wheat plant response rating [1, 17]: 0
- Wheat plant response rating [1, 18]: 0
- Wheat plant response rating [1, 19]: 0
- Wheat plant response rating [1, 20]: 0
- Morningglory plant response rating [2, 16]: 4
- Plant response rating, Morningglory ([2]; Preemergence, Rate 62 g/ha): 0
- Plant response rating, Morningglory ([2]; Preemergence, Rate 125 g/ha): 0
- Morningglory plant response rating [2, 17]: 0
- Morningglory plant response rating [2, 18]: 0
- Morningglory plant response rating [2, 19]: 3
- Morningglory plant response rating [2, 20]: 3
- Plant response rating, S. Flatsedge (0 to 10 scale, 0 is no effect, 10 is complete control) [3, 21]: 0
- S. Flatsedge plant response rating (0 to 10 scale, 0 is no effect, 10 is complete control) [3, 22]: 0
- S. Flatsedge plant response rating [3, 23]: 0
- S. Flatsedge plant response rating [3, 24]: 0
- Rape plant response rating [4, 16]: 0
- Plant response rating, Rape ([4]; Preemergence, Rate 62 g/ha): 2
- Plant response rating, Rape ([4]; Preemergence, Rate 125 g/ha): 2
- Rape plant response rating [4, 17]: 7
- Rape plant response rating [4, 18]: 10
- Rape plant response rating [4, 19]: 0
- Rape plant response rating [4, 20]: 0
- Plant response rating, Ducksalad (0 to 10 scale, 0 is no effect, 10 is complete control) [5, 21]: 0
- Ducksalad plant response rating (0 to 10 scale, 0 is no effect, 10 is complete control) [5, 22]: 0
- Ducksalad plant response rating [5, 23]: 0
- Ducksalad plant response rating [5, 24]: 0
- Cocklebur plant response rating [6, 16]: 0
- Cocklebur plant response rating [6, 25]: 0
- Plant response rating, Cocklebur [6, 26]: 0
- Cocklebur plant response rating [6, 17]: 0
- Cocklebur plant response rating [6, 18]: 0
- Cocklebur plant response rating [6, 19]: 0
- Cocklebur plant response rating [6, 20]: 0
- Blackgrass plant response rating [7, 16]: 3
- Blackgrass plant response rating [7, 25]: 7
- Plant response rating, Blackgrass [7, 26]: 9
- Plant response rating, Blackgrass [7, 27]: 10
- Blackgrass plant response rating [7, 17]: 10
- Blackgrass plant response rating [7, 18]: 10
- Blackgrass plant response rating [7, 19]: 0
- Blackgrass plant response rating [7, 20]: 2
- B. signalgrass plant response rating ([8]; Postemergence, Rate 250 g/ha, scale 0 to 10, 0 no effect, 10 complete control): 4
- B. signalgrass plant response rating [8, 25]: 6
- Plant response rating, B. signalgrass [8, 26]: 6
- Plant response rating, B. signalgrass [8, 27]: 9
- B. signalgrass plant response rating [8, 17]: 10
- B. signalgrass plant response rating [8, 18]: 10
- B. signalgrass plant response rating [8, 19]: 0
- B. signalgrass plant response rating [8, 20]: 0
- Redroot pigweed plant response rating [9, 16]: 2
- Plant response rating, Redroot pigweed ([9]; Preemergence, Rate 62 g/ha): 10
- Plant response rating, Redroot pigweed ([9]; Preemergence, Rate 125 g/ha): 10
- Redroot pigweed plant response rating [9, 17]: 10
- Redroot pigweed plant response rating [9, 18]: 10
- Redroot pigweed plant response rating [9, 19]: 0
- Redroot pigweed plant response rating [9, 20]: 0
- Plant response rating, Barnyardgrass (0 to 10 scale, 0 is no effect, 10 is complete control) [10, 21]: 0
- Barnyardgrass plant response rating (0 to 10 scale, 0 is no effect, 10 is complete control) [10, 22]: 0
- Barnyardgrass plant response rating [10, 23]: 0
- Barnyardgrass plant response rating [10, 24]: 0
- Wild oats plant response rating [11, 16]: 0
- Plant response rating, Wild oats ([11]; Preemergence, Rate 62 g/ha): 2
- Plant response rating, Wild oats ([11]; Preemergence, Rate 125 g/ha): 4
- Wild oats plant response rating [11, 17]: 7
- Wild oats plant response rating [11, 18]: 7
- Wild oats plant response rating [11, 19]: 0
- Wild oats plant response rating [11, 20]: 0
- Nutsedge plant response rating [12, 16]: 0
- Plant response rating, Nutsedge ([12]; Preemergence, Rate 62 g/ha): 0
- Plant response rating, Nutsedge ([12]; Preemergence, Rate 125 g/ha): 0
- Nutsedge plant response rating [12, 17]: 0
- Nutsedge plant response rating [12, 18]: 0
- Nutsedge plant response rating [12, 19]: 0
- Nutsedge plant response rating [12, 20]: 0
- Corn plant response rating [13, 16]: 0
- Corn plant response rating [13, 25]: 0
- Plant response rating, Corn [13, 26]: 0
- Plant response rating, Corn [13, 27]: 0
- Corn plant response rating [13, 17]: 2
- Corn plant response rating [13, 18]: 3
- Corn plant response rating [13, 19]: 0
- Corn plant response rating [13, 20]: 0
- Plant response rating, Rice (0 to 10 scale, 0 is no effect, 10 is complete control) [14, 21]: 0
- Rice plant response rating (0 to 10 scale, 0 is no effect, 10 is complete control) [14, 22]: 0
- Rice plant response rating [14, 23]: 0
- Rice plant response rating [14, 24]: 0
- Velvetleaf plant response rating [15, 16]: 2
- Plant response rating, Velvetleaf ([15]; Preemergence, Rate 62 g/ha): 2
- Plant response rating, Velvetleaf ([15]; Preemergence, Rate 125 g/ha): 3
- Velvetleaf plant response rating [15, 17]: 3
- Velvetleaf plant response rating [15, 18]: 6
- Velvetleaf plant response rating [15, 19]: 0
- Velvetleaf plant response rating [15, 20]: 2
